The values that follow come from ChEMBL document CHEMBL1201862, “PubChem BioAssay data set” (2004).

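Cells were grown in 96-well plates and exposed to each compound for 48 hours at five concentrations; endpoints were interpolated linearly between bracketing concentrations, or set to the highest concentration if not reached. Abbreviation: GI50, concentration required for 50% inhibition of growth.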 Calls of active or inactive are those of the source. Cut-off read from the data, not from the text of the source: active = GI50 up to about 1.1 µM and inactive = higher.

Test systems include A549; ACHN; COLO 205; HOP-92; KM12; MOLT-4; Malme-3M; OVCAR-5; OVCAR-8; RPMI-8226; SF-268; SF-539; SK-MEL-28; SK-MEL-2; SN12C; U-251; UACC-257; M14; NCI-H226.
What all share (assay): NCI anticancer screen, dose series, 48 h

On to `C=C1CN=C(Nc2ccc(F)cc2F)S1`, for which the GI50 is > 100 µM (inactive) with A549; > 100 µM (inactive) with ACHN; > 100 µM (inactive) in the assay with COLO 205; 2.51 µM (inactive) in the assay on HOP-92; > 100 µM (inactive) with KM12; 31.7 µM (inactive) with MOLT-4. For the same molecule, the GI50 is > 100 µM (inactive) with Malme-3M; > 100 µM (inactive) in the assay on OVCAR-5; > 100 µM (inactive) in the assay on OVCAR-8; 49.7 µM (inactive) with RPMI-8226; > 100 µM (inactive) with SF-268; > 100 µM (inactive) with SF-539. Besides, the GI50 in the assay on SK-MEL-28, in the assay with SK-MEL-2, in the assay with SN12C, in the assay on U-251 and in the assay on UACC-257 was > 100 µM (inactive) each time.

For the molecule `CC1=C(C(=O)NNC(=O)c2ccccc2O)CC(C(=O)NNC(=O)c2ccccc2O)=C(C)N1`, the GI50 is 0.48 µM (active) in the assay with A549; 0.424 µM (active) with ACHN; 16.9 µM (inactive) with COLO 205; 0.384 µM (active) with KM12; 2.22 µM (inactive) with M14; 0.522 µM (active) in the assay with MOLT-4. In addition, the GI50 in the assay with Malme-3M was > 100 µM (inactive); with NCI-H226, 1.79 µM (inactive); in the assay with OVCAR-5, 22.6 µM (inactive); in the assay with OVCAR-8, 0.845 µM (active); with RPMI-8226, 0.752 µM (active); in the assay with SF-268, 0.22 µM (active). In addition, the GI50 is 0.796 µM (active) in the assay with SF-539; > 77.3 µM (inactive) with SK-MEL-28; 5.83 µM (inactive) with SN12C; 0.459 µM (active) with U-251; 27.2 µM (inactive) in the assay with UACC-257.

Regarding `O=C1NC(=S)NC(=O)C1C(c1ccc(O)cc1)C1C(=O)NC(=S)NC1=O.c1ccncc1`, the GI50 in the assay with A549, in the assay with ACHN, in the assay on COLO 205, in the assay with HOP-92, in the assay with KM12 and in the assay with M14 was > 100 µM (inactive) throughout. Further, the GI50 in the assay with MOLT-4, in the assay on Malme-3M, in the assay with NCI-H226, with OVCAR-5, in the assay on OVCAR-8 and in the assay with RPMI-8226 was > 100 µM (inactive) throughout. For the same molecule, the GI50 in the assay with SK-MEL-28, in the assay on SK-MEL-2, in the assay with SN12C, in the assay with U-251 and with UACC-257 was > 100 µM (inactive) throughout.

Regarding `CN(Cc1ccccc1)C(=S)S` [SODIUM BENZYL(METHYL)CARBAMODITHIOATE], the GI50 in the assay on A549 is 33.5 µM (inactive); with ACHN, 53.5 µM (inactive); in the assay on COLO 205 it was 57.3 µM (inactive); in the assay with HOP-92 it was 68.2 µM (inactive); in the assay with KM12, 56.1 µM (inactive); in the assay with M14, 23.3 µM (inactive). Moreover, the GI50 is 20 µM (inactive) with MOLT-4; 38.7 µM (inactive) in the assay with Malme-3M; 98.6 µM (inactive) in the assay on NCI-H226; 35.9 µM (inactive) in the assay on OVCAR-5; 33 µM (inactive) in the assay with OVCAR-8; 53.3 µM (inactive) in the assay with SF-268. In addition, the GI50 was 69.2 µM (inactive) in the assay with SK-MEL-28; 55.7 µM (inactive) with SK-MEL-2; 52.4 µM (inactive) in the assay on SN12C; 38 µM (inactive) in the assay with U-251; 53.2 µM (inactive) with UACC-257.

For the molecule `C/C=C/C/C=C/CCC(=O)C1OC1C(N)=O` (stereo not given), the GI50 with A549 was 20.7 µM (inactive); with ACHN, 15.2 µM (inactive); in the assay with COLO 205, 18.9 µM (inactive); in the assay with HOP-92, 16 µM (inactive); with KM12, 15.3 µM (inactive); in the assay with M14 it was 15.8 µM (inactive). Moreover, the GI50 is 13.2 µM (inactive) in the assay with MOLT-4; 17.8 µM (inactive) in the assay on Malme-3M; 18.8 µM (inactive) in the assay on OVCAR-5; 13.3 µM (inactive) with OVCAR-8; 12.5 µM (inactive) in the assay on SF-268; 15.2 µM (inactive) in the assay on SF-539. Moreover, the GI50 is 15.4 µM (inactive) in the assay with SK-MEL-28; 18.6 µM (inactive) in the assay on SK-MEL-2; 19 µM (inactive) in the assay with SN12C; 16.8 µM (inactive) in the assay with U-251; 17.3 µM (inactive) with UACC-257.

Consider `Cc1c2cccc-2c(OCCOC(=O)n2ccnc2)cc2c1[nH]c1ccccc12`, for which the GI50 in the assay on A549 is 3.42 µM (inactive); in the assay with ACHN, 2.56 µM (inactive); in the assay on HOP-92, 1.7 µM (inactive); in the assay with KM12, 2.14 µM (inactive); with M14, 3.46 µM (inactive); in the assay with MOLT-4, 4.12 µM (inactive). Further, the GI50 in the assay on Malme-3M was 2.79 µM (inactive); in the assay with NCI-H226, 2.39 µM (inactive); with OVCAR-5 it was 2.55 µM (inactive); in the assay with OVCAR-8 it was 2.18 µM (inactive); in the assay with RPMI-8226, 3.48 µM (inactive); in the assay with SF-268, 2.6 µM (inactive). In addition, the GI50 with SK-MEL-28 is 2.02 µM (inactive); in the assay on SK-MEL-2 it was 1.98 µM (inactive); in the assay on SN12C it was 2.58 µM (inactive); in the assay on UACC-257, 2.73 µM (inactive).

For the molecule `CCOC(=O)C1C(c2ccc3c(c2)OCO3)c2c(n[nH]c2O)CC1(C)O` (stereo not given), the GI50 in the assay with A549, in the assay on ACHN, in the assay on COLO 205, in the assay on HOP-92, with KM12 and in the assay on M14 was > 100 µM (inactive) throughout. The GI50 in the assay with MOLT-4 is > 100 µM (inactive); in the assay with Malme-3M it was 56.1 µM (inactive); in the assay on OVCAR-5 it was > 100 µM (inactive); in the assay on OVCAR-8 it was > 100 µM (inactive); with RPMI-8226, > 100 µM (inactive); with SF-268, > 100 µM (inactive). The GI50 in the assay on SF-539, in the assay with SK-MEL-28, in the assay on SK-MEL-2, in the assay on SN12C, in the assay on U-251 and with UACC-257 was > 100 µM (inactive) each time.

Regarding `O=C([C@H](O)[C@@H](O)c1cccc(Cl)c1)C12CC3CC(CC(C3)C1)C2`, the GI50 is 2.19 µM (inactive) with A549; 1.91 µM (inactive) in the assay on ACHN; 2.13 µM (inactive) in the assay with COLO 205; 2.26 µM (inactive) with KM12; 2.45 µM (inactive) in the assay on M14; 2.84 µM (inactive) with MOLT-4. The GI50 in the assay on Malme-3M was 4.81 µM (inactive); with NCI-H226 it was 4.32 µM (inactive); in the assay on OVCAR-5 it was 3.1 µM (inactive); with OVCAR-8, 1.88 µM (inactive); with RPMI-8226, 0.838 µM (active); with SF-268, 1.81 µM (inactive). Moreover, the GI50 in the assay with SF-539 was 1.77 µM (inactive); with SK-MEL-28, 3.21 µM (inactive); with SK-MEL-2, 1.95 µM (inactive); with SN12C it was 1.61 µM (inactive); in the assay on U-251, 1.53 µM (inactive); in the assay on UACC-257 it was 2.21 µM (inactive).

Turning to `Cc1ccc2ccccc2c1CC1S(=O)(=O)OCCOS1(=O)=O`, the GI50 in the assay on A549 is 13.5 µM (inactive); with ACHN, 14.4 µM (inactive); with COLO 205, 2.43 µM (inactive); in the assay with KM12, 12.1 µM (inactive); in the assay on M14, 12.9 µM (inactive); in the assay on MOLT-4, 6.28 µM (inactive). The GI50 in the assay with Malme-3M is 11.5 µM (inactive); in the assay on OVCAR-5, 11.9 µM (inactive); with OVCAR-8 it was 14.5 µM (inactive); with RPMI-8226, 11.4 µM (inactive); in the assay with SK-MEL-28 it was 16 µM (inactive); in the assay with SK-MEL-2 it was 16.7 µM (inactive). Moreover, the GI50 is 10.1 µM (inactive) with SN12C, 12 µM (inactive) in the assay on U-251 and 18.2 µM (inactive) in the assay with UACC-257.

Regarding `C[C@@H]1CC[C@@H]2[C@@H](C1)O[C@@H]([C@H](C)OCc1ccccc1)SC2(C)C`, the GI50 in the assay on A549 is 26.3 µM (inactive); with ACHN it was 18.8 µM (inactive); with COLO 205, 19.3 µM (inactive); in the assay with KM12, 18.5 µM (inactive); in the assay on M14, 16.8 µM (inactive); in the assay with MOLT-4 it was 18.4 µM (inactive). Moreover, the GI50 was 22.6 µM (inactive) in the assay with Malme-3M; 18.4 µM (inactive) in the assay on NCI-H226; 16.3 µM (inactive) in the assay on OVCAR-5; 31.5 µM (inactive) in the assay with OVCAR-8; 17.4 µM (inactive) with RPMI-8226; 32.3 µM (inactive) in the assay with SF-268. For the same molecule, the GI50 in the assay with SF-539 is 29.2 µM (inactive); with SK-MEL-28, 32.1 µM (inactive); with SK-MEL-2, 17.5 µM (inactive); in the assay with SN12C, 18.7 µM (inactive); with U-251, 17.9 µM (inactive); in the assay on UACC-257, 25.5 µM (inactive).

With `COc1ccc(C2(O)c3ccccc3C(=O)N(C)C2(O)c2ccc(OC)cc2)cc1` (stereo not given), the GI50 in the assay with A549 is 57.8 µM (inactive); in the assay with COLO 205 it was 22.6 µM (inactive); with HOP-92, 36.3 µM (inactive); with KM12, 16.4 µM (inactive); with M14, 53.3 µM (inactive); in the assay on MOLT-4, 24.7 µM (inactive). For the same molecule, the GI50 with Malme-3M was 45.9 µM (inactive); in the assay on OVCAR-5, > 100 µM (inactive); with OVCAR-8, 81.7 µM (inactive); with RPMI-8226 it was > 100 µM (inactive); in the assay with SF-268, 28.7 µM (inactive); with SF-539, > 100 µM (inactive). The GI50 is 25.6 µM (inactive) in the assay with SK-MEL-28; 43.4 µM (inactive) in the assay with SK-MEL-2; > 100 µM (inactive) in the assay with SN12C; 52.7 µM (inactive) in the assay on U-251; 61.9 µM (inactive) in the assay with UACC-257.

For the molecule `C=C(C)C1(Sc2ccc(OC)cc2)CC1`, the GI50 in the assay on A549 is 30.8 µM (inactive); in the assay on ACHN, 33.6 µM (inactive); with COLO 205, 17.1 µM (inactive); in the assay on KM12 it was 25 µM (inactive); in the assay with M14, 35.1 µM (inactive); in the assay on MOLT-4, 13.8 µM (inactive). Also, the GI50 with Malme-3M was 17.8 µM (inactive); with NCI-H226, 4.81 µM (inactive); in the assay on OVCAR-5 it was 34.2 µM (inactive); in the assay on OVCAR-8 it was 33 µM (inactive); in the assay with RPMI-8226, 9.29 µM (inactive); with SF-268 it was 15.8 µM (inactive). Besides, the GI50 in the assay on SF-539 was 23.2 µM (inactive); in the assay on SK-MEL-28, 79.1 µM (inactive); with SK-MEL-2 it was 21.3 µM (inactive); with SN12C, 17.5 µM (inactive); in the assay with U-251, 29 µM (inactive); with UACC-257 it was 21.2 µM (inactive).
